Holding throughout (format): biochemical
One experiment has as its target PAK2 (PAK65) (Homo sapiens, UniProt Q13177). As to the kind of experiment: In vitro PAK inhibition assay (SelectScreen, Ser/Thr 20 peptide). As for the experimental part: (§1) Compounds are screened in 1% DMSO (final) in the well. For 10 point titrations, 3-fold serial dilutions are conducted.
(§2) All Peptide/Kinase Mixtures are diluted to a 2× working concentration in the appropriate Kinase Buffer
The 2×PAK2 (PAK65)/Ser/Thr 20 mixture is prepared in 50 mM HEPES pH 7.5, 0.01% BRIJ-35, 10 mM MgCl2, 1 mM EGTA. The final 10 μL Kinase Reaction consists of 0.29-6 ng PAK2 (PAK65) and 2 μM Ser/Thr 20 in 50 mM HEPES pH 7.5, 0.01% BRIJ-35, 10 mM MgCl2, 1 mM EGTA.
(§3) This control yields 100% cleaved peptide in the Development Reaction.
(§4) The 100% Phosphorylation Control, which consists of a synthetically phosphorylated peptide of the same sequence as the peptide substrate, is designed to allow for the calculation of percent phosphorylation.
(§5) This control is designed to produce a 10-50%* phosphorylated peptide in the Kinase Reaction.
(§6) A known inhibitor control standard curve, 10 point titration, is run for each individual kinase on the same plate as the kinase to ensure the kinase is inhibited within an expected IC50 range previously determined.
(§7) Add the following solutions to a well in a 384-well plate: • 2.5 μL of 4× Test Compound OR (100 nL 100× Test Compound plus 2.4 μL kinase buffer) • 5 μL of 2× Peptide/Kinase (PAK) Mixture • 2.5 μL of 4×ATP Solution • 2. Shake the plate for 30-seconds • 3. Incubate the PAK Kinase Reaction at room temperature for 60-minutes • 4. Add 5 μL of Development Reagent Solution to each well • 5. Shake the plate for 30-seconds • 6. Incubate the Development Reaction for 60-minutes • 7. Determine the fluorescence using a fluorescence plate reader • 8. Analyze the fluorescence data
(§8) SelectScreen® Kinase Profiling Service uses XLfit from IDBS.
(§9) The representative IC50 value with a known inhibitor for each kinase was determined at the ATP bin nearest to the ATP Km app.

For a further experiment, the target named is PAK3 (Homo sapiens, UniProt O75914). The description is as above. Here is the method: as §1, §2
The 2×PAK3/Ser/Thr 20 mixture is prepared in 50 mM HEPES pH 7.5, 0.01% BRIJ-35, 10 mM MgCl2, 1 mM EGTA.
as §3, §4, §5, §6, §7, §8, §9

The target in a further experiment is PAK1 (Homo sapiens, UniProt Q13153). The experiment can be described thus: In vitro PAK inhibition assay (SelectScreen, Ser/Thr 19 peptide). Here is the method:
as §1, §2
The 2×PAK1/Ser/Thr 19 mixture is prepared in 50 mM HEPES pH 7.5, 0.01% BRIJ-35, 10 mM MgCl2, 1 mM EGTA.
as §3, §4, §5, §6, §7, §8, §9

The target in a further experiment is PAK4 (Homo sapiens, UniProt O96013). As to the kind of experiment: In vitro PAK inhibition assay (SelectScreen, Ser/Thr 20 peptide). Here is the method: as §1, §2
The 2×PAK4/Ser/Thr 20 mixture is prepared in 50 mM HEPES pH 7.5, 0.01% BRIJ-35, 10 mM MgCl2, 1 mM EGTA. The final 10 μL Kinase Reaction consists of 0.1-0.75 ng PAK4 and 2 μM Ser/Thr 20 in 50 mM HEPES pH 7.5, 0.01% BRIJ-35, 10 mM MgCl2, 1 mM EGTA. After the 1 hour Kinase Reaction incubation, 5 μL of a 1:256 dilution of Development Reagent A is added.
as §3, §4
The minimum Emission Ratio in a screen is established by the 0% Inhibition Control, which contains active kinase. This control is designed to produce a 10-50%* phosphorylated peptide in the Kinase Reaction.
as §6
as §7, with “Bar-coded Corning, low volume NBS, black 384-well plate (Corning Cat. #3676) • 1. Add the” for “Add the”
SelectScreen® Kinase Profiling Service uses XLfit from IDBS. The dose response curve is curve fit to model number 205 (sigmoidal dose-response model).
The table below provides specifications and data around each kinase. The representative IC50 value with a known inhibitor for each kinase was determined at the ATP bin nearest to the ATP Km app.

Chain of PAK2 (PAK65) (Q13177 whole entry): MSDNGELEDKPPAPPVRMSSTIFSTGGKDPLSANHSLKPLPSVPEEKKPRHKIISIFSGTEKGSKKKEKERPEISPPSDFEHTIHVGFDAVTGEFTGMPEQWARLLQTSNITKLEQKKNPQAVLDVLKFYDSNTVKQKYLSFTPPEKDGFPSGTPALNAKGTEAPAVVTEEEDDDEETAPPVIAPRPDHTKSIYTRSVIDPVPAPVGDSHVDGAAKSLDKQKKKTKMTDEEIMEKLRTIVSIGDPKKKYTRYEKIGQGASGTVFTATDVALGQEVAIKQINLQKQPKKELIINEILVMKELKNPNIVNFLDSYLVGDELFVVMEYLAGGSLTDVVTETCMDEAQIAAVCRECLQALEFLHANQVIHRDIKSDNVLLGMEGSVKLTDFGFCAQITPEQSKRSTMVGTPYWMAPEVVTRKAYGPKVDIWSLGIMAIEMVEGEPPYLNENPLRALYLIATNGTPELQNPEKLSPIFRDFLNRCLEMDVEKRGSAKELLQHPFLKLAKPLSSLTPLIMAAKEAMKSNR
Chain of PAK3 (O75914 whole entry): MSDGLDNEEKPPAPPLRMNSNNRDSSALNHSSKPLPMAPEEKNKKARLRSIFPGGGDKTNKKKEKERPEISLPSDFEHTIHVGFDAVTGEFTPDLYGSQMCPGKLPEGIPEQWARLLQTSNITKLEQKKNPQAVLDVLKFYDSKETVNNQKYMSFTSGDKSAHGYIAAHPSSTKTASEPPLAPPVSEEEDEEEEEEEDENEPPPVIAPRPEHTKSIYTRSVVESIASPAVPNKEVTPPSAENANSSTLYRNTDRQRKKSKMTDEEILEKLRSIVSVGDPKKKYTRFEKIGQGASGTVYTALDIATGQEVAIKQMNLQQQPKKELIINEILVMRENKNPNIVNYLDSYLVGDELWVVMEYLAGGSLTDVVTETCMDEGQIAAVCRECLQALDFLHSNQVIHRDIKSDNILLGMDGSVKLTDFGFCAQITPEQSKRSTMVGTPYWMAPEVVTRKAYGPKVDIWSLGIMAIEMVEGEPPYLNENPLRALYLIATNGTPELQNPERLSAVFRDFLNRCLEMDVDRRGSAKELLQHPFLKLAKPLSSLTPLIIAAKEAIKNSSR
Chain of PAK1 (Q13153 whole entry): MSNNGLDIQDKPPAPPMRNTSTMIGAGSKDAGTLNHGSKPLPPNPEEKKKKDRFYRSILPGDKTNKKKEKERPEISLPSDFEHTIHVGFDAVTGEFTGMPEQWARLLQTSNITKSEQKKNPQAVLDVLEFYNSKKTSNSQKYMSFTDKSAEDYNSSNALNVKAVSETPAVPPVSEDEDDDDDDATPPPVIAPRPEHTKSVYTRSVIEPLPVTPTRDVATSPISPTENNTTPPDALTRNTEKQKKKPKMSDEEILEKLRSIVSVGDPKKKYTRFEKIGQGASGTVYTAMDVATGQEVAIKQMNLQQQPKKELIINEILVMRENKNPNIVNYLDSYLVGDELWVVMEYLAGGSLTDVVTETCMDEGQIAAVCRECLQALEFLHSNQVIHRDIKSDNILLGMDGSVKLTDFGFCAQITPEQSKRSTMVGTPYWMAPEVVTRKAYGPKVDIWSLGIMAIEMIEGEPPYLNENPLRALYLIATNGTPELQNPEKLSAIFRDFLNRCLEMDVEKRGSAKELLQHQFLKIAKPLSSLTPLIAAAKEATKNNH
Chain of PAK4 (O96013 whole entry): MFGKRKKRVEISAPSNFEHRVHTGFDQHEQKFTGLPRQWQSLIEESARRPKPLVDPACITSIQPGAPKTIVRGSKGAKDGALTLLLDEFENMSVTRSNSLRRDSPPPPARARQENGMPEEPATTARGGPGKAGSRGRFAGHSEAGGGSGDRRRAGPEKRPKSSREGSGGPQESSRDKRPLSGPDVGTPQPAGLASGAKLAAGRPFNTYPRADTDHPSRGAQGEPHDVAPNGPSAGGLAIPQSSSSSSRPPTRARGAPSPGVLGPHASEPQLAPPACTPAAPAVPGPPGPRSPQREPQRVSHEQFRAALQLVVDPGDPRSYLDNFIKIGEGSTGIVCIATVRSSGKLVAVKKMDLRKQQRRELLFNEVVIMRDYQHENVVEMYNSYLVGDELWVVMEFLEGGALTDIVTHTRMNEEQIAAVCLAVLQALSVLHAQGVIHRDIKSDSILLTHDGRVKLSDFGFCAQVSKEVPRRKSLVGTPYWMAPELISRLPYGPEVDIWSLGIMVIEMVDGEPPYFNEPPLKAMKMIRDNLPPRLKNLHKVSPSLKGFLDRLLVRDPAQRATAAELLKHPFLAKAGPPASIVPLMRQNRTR

Consider `CCn1c(=O)c(-c2sc(C)nc2C)cc2cnc(Nc3ccc(N4CCN(C)CC4)cc3)nc21`, for which the IC50 against PAK2 (PAK65) was above 5000 nM; on PAK3 it was above 5000 nM; at PAK1, above 5000 nM; against PAK4, at least 5000 nM.

As for `CCn1c(=O)c(-c2ccc(-c3cncnc3)cc2Cl)cc2cnc(Nc3ccc(N4CCN(C)CC4)cc3)nc21`, the IC50 was below 50 nM against PAK2 (PAK65), below 50 nM against PAK3, below 50 nM at PAK1 and 500 to 5000 nM at PAK4.

With `CCN1CCC(c2ccc(Nc3ncc4cc(-c5ccc(-c6cccnc6)cc5Cl)c(=O)n(CC)c4n3)cc2)CC1`, the IC50 on PAK2 (PAK65) is below 50 nM; against PAK3 it was below 50 nM; against PAK1 it was below 50 nM; at PAK4, 500 to 5000 nM.

On to `CCN1CCC(c2ccc(Nc3ncc4cc(-c5ccc(-c6cnc(C)s6)cc5Cl)c(=O)n(CC)c4n3)cc2)CC1`, for which the IC50 is below 50 nM against PAK2 (PAK65), 50 to 500 nM against PAK3, below 50 nM against PAK1 and 500 to 5000 nM on PAK4.

On to `CCn1c(=O)c(-c2ccc(-c3ccc(C(=O)NC)nc3)cc2Cl)cc2cnc(Nc3ccc(C4CCN(C)CC4)cc3)nc21`, for which the IC50 against PAK2 (PAK65) was 50 to 500 nM; on PAK3 it was above 5000 nM; against PAK1, 500 to 5000 nM; on PAK4 it was at least 5000 nM.

With `CCn1c(=O)c(-c2ccc(-c3ccc(C)nc3)cc2Cl)cc2cnc(Nc3ccc(C4CCN(C)CC4)cc3)nc21`, the IC50 against PAK2 (PAK65) is below 50 nM; at PAK3, 50 to 500 nM; at PAK1, below 50 nM; on PAK4, 500 to 5000 nM.

Take `CCn1c(=O)c(-c2ccc(-c3cccnc3C)cc2Cl)cc2cnc(Nc3ccc(C4CCN(C)CC4)cc3)nc21`: the IC50 against PAK2 (PAK65) was below 50 nM; against PAK3, below 50 nM; against PAK1 it was below 50 nM; at PAK4, at least 5000 nM.

Regarding `CCn1c(=O)c(-c2ccc(-c3cccnc3)cc2Cl)cc2cnc(Nc3ccccc3)nc21`, the IC50 is 500 to 5000 nM against PAK2 (PAK65), 500 to 5000 nM at PAK3, 50 to 500 nM against PAK1 and at least 5000 nM against PAK4.

As to `CCn1c(=O)c(-c2ccc(-c3ccnc(C)c3)cc2Cl)cc2cnc(Nc3ccc(C4CCN(C)CC4)cc3)nc21`, the IC50 is below 50 nM at PAK2 (PAK65), below 50 nM against PAK3, above 5000 nM at PAK1 and 500 to 5000 nM on PAK4.

For the molecule `CCN1CCC(c2ccc(Nc3ncc4cc(-c5ccc(-c6cnc(C)s6)cc5Cl)c(=O)n(CC)c4n3)cc2F)CC1`, the IC50 on PAK2 (PAK65) was below 50 nM; at PAK3, below 50 nM; against PAK1, below 50 nM; at PAK4, 500 to 5000 nM.

Turning to `CCn1c(=O)c(-c2ccc(-c3cnc(C)s3)cc2Cl)cc2cnc(Nc3ccc(C4CCNC4)cc3)nc21` (stereo not shown), the IC50 at PAK2 (PAK65) is below 50 nM; against PAK3, below 50 nM; against PAK1, below 50 nM; on PAK4 it was 500 to 5000 nM.

Take `CCn1c(=O)c(-c2ccc(-c3noc(C)n3)cc2Cl)cc2cnc(Nc3ccc(C4CCNCC4)c(F)c3)nc21`: the IC50 was below 50 nM at PAK2 (PAK65), below 50 nM against PAK3, below 50 nM against PAK1 and 500 to 5000 nM at PAK4.

With `CCn1c(=O)c(-c2ccc(-c3cnc(C)s3)cc2Cl)cc2cnc(Nc3ccc(C4CCNCC4)c(F)c3)nc21`, the IC50 on PAK2 (PAK65) was below 50 nM; at PAK3, below 50 nM; against PAK1, below 50 nM; on PAK4, 500 to 5000 nM.

`CCn1c(=O)c(-c2ccc(-c3ccnc(C(=O)NC)c3)cc2Cl)cc2cnc(Nc3ccc(C4CCNCC4)cc3)nc21`: the IC50 was 50 to 500 nM on PAK2 (PAK65), 50 to 500 nM against PAK3, 50 to 500 nM against PAK1 and at least 5000 nM against PAK4.

Consider `CCN1CCC(c2ccc(Nc3ncc4cc(-c5ccc(-c6ccnc(C)c6)cc5Cl)c(=O)n(CC)c4n3)cc2)CC1`, for which the IC50 against PAK2 (PAK65) is below 50 nM; at PAK3 it was 50 to 500 nM; against PAK1, below 50 nM; on PAK4, at least 5000 nM.

Regarding `CCn1c(=O)c(-c2ccc(-c3ccc(C)nc3)cc2Cl)cc2cnc(Nc3ccc(C4CCNCC4)cc3)nc21`, the IC50 is below 50 nM on PAK2 (PAK65), 50 to 500 nM against PAK3, below 50 nM against PAK1 and 500 to 5000 nM against PAK4.

For `CCn1c(=O)c(-c2ccc(-c3ccnc(C)c3)cc2Cl)cc2cnc(Nc3ccc(C4CCNCC4)cc3)nc21`, the IC50 against PAK2 (PAK65) is 50 to 500 nM; against PAK3 it was 50 to 500 nM; at PAK1, below 50 nM; at PAK4, 500 to 5000 nM.

On to `CCN1CCC(c2ccc(Nc3ncc4cc(-c5ccc(-c6cccnc6)cc5Cl)c(=O)n(CC)c4n3)cc2F)CC1`, for which the IC50 against PAK2 (PAK65) is below 50 nM; against PAK3, below 50 nM; against PAK1, below 50 nM; at PAK4, 500 to 5000 nM.

For the molecule `CCn1c(=O)c(-c2ccc(-c3cccnc3C)cc2Cl)cc2cnc(Nc3ccc(C4CCNCC4)c(F)c3)nc21`, the IC50 is below 50 nM against PAK2 (PAK65), 50 to 500 nM against PAK3, below 50 nM at PAK1 and 500 to 5000 nM against PAK4.

Consider `CCn1c(=O)c(-c2ccc(-c3cccnc3)cc2Cl)cc2cnc(Nc3ccc(CN(C)C)cc3)nc21`, for which the IC50 against PAK2 (PAK65) was below 50 nM; at PAK3, below 50 nM; at PAK1, below 50 nM; at PAK4, 500 to 5000 nM.

For `Cc1ncccc1-c1ccc(-c2cc3cnc(Nc4ccc(C5CCNCC5)cc4)nc3n(C)c2=O)c(Cl)c1`, the IC50 against PAK2 (PAK65) was 50 to 500 nM; against PAK3, 50 to 500 nM; on PAK1, below 50 nM; against PAK4, at least 5000 nM.

Turning to `CCn1c(=O)c(-c2ccc(-c3cccnc3C)cc2Cl)cc2cnc(Nc3ccc(C4=CCNCC4)cc3)nc21`, the IC50 is below 50 nM against PAK2 (PAK65), below 50 nM against PAK3, below 50 nM against PAK1 and 500 to 5000 nM against PAK4.

With `CCn1c(=O)c(-c2ccc(-c3cccnc3F)cc2Cl)cc2cnc(Nc3ccc(C4=CCNCC4)cc3)nc21`, the IC50 is below 50 nM on PAK2 (PAK65), below 50 nM against PAK3, below 50 nM at PAK1 and 50 to 500 nM against PAK4.

As to `CCn1c(=O)c(-c2ccc(-c3cnc(C)s3)cc2Cl)cc2cnc(Nc3ccc(C4=CCNCC4)cc3)nc21`, the IC50 on PAK2 (PAK65) is below 50 nM; at PAK3, below 50 nM; against PAK1, below 50 nM; against PAK4 it was 500 to 5000 nM.

With `CCn1c(=O)c(-c2ccc(-c3ccc(C)nc3)cc2Cl)cc2cnc(Nc3ccc(C4CCN(C(C)C)CC4)cc3)nc21`, the IC50 against PAK2 (PAK65) was below 50 nM; against PAK3, 50 to 500 nM; against PAK1 it was below 50 nM; at PAK4, at least 5000 nM.

With `CCn1c(=O)c(-c2ccc(-c3noc(C)n3)cc2Cl)cc2cnc(Nc3ccc(C4CCN5CCCC5C4)cc3)nc21` (stereo not shown), the IC50 is below 50 nM against PAK2 (PAK65), below 50 nM at PAK3, below 50 nM on PAK1 and at least 5000 nM against PAK4.

In the case of `CCn1c(=O)c(-c2ccc(-c3ccc(C)nc3)cc2Cl)cc2cnc(Nc3ccc(C4CCNCC4)c(F)c3)nc21`, the IC50 was below 50 nM against PAK2 (PAK65), 50 to 500 nM against PAK3, below 50 nM at PAK1 and 500 to 5000 nM against PAK4.

As to `CCn1c(=O)c(-c2ccc(-c3cccnc3F)cc2Cl)cc2cnc(Nc3ccc(C4=CCN(C)CC4)cc3)nc21`, the IC50 against PAK2 (PAK65) was below 50 nM; at PAK3, below 50 nM; on PAK1, below 50 nM; on PAK4 it was 500 to 5000 nM.

The values above are taken from patent publication US20140163026A1, “8-ETHYL-6-(ARYL)PYRIDO[2,3-D]PYRIMIDIN-7(8H)-ONES FOR THE TREATMENT OF NERVOUS SYSTEM DISORDERS AND CANCER” (Afraxis Holdings, Inc., priority 2011, published 2014).
